#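 Cells were grown in 96-well plates and exposed to each compound for 48 hours at five concentrations; endpoints were interpolated linearly between bracketing concentrations, or set to the highest concentration if not reached. GI50 is the concentration that inhibits growth by half. TGI: concentration producing complete growth inhibition.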
# Experiments:
# Assay in all cases: inhibition of tumour cell growth, NCI panel, 48 h
# OVCAR-8 ovarian = system: OVCAR-8 ovarian
# KM12 colon = system: KM12 colon
# BT-549 breast = system: BT-549 breast
# U251 CNS = system: U251 CNS
# SW-620 colon = system: SW-620 colon
# HL-60(TB) leukemia = system: HL-60(TB) leukemia
# 786-0 renal = system: 786-0 renal
# HCT-116 colon = system: HCT-116 colon
# RXF 393 renal = system: RXF 393 renal
# SF-539 CNS = system: SF-539 CNS
SMILES,GI50 (OVCAR-8 ovarian) [µM],TGI (OVCAR-8 ovarian) [µM],GI50 (KM12 colon) [µM],TGI (KM12 colon) [µM],GI50 (BT-549 breast) [µM],TGI (BT-549 breast) [µM],GI50 (U251 CNS) [µM],TGI (U251 CNS) [µM],GI50 (SW-620 colon) [µM],TGI (SW-620 colon) [µM],GI50 (HL-60(TB) leukemia) [µM],TGI (HL-60(TB) leukemia) [µM],GI50 (786-0 renal) [µM],TGI (786-0 renal) [µM],GI50 (HCT-116 colon) [µM],TGI (HCT-116 colon) [µM],GI50 (RXF 393 renal) [µM],TGI (RXF 393 renal) [µM],GI50 (SF-539 CNS) [µM],TGI (SF-539 CNS) [µM]
Cn1cc(C2=C(c3cn(C)c4c(N)cccc34)C(=O)NC2=O)c2ccccc21,2.85,> 25,0.968,12.1,1.01,6.66,1.19,> 19.2,0.905,> 25,1.05,7.28,2,> 25,1.03,> 20.6,1.03,6.85,0.59,1.98
Cn1cc(C2=C(c3cn(CCCN=C(N)N)c4ccccc34)C(=O)NC2=O)c2ccccc21,> 25,> 25,> 25,> 25,> 25,> 25,> 25,> 25,> 25,> 25,> 25,> 25,> 25,> 25,> 25,> 25,> 20,> 25,> 25,> 25
COc1cc2c(/C=C3/C(=O)Nc4cccc(Cl)c43)c(Cl)n(Cc3ccccc3)c2cc1C,5.21,> 71.9,2.46,17.9,6.98,29.1,2.46,20.6,6.11,> 100,5.22,> 100,3.59,26.7,4.19,55.6,5.05,> 29,3.78,> 100
COc1ccc(C2CC(=O)c3c(O)c(OC)c(OC)c(OC)c3O2)c(O)c1 (centres undefined),0.294,40.9,0.0693,15.7,0.221,20.5,0.0985,36.1,0.0484,21.4,0.0459,0.632,0.839,> 100,0.053,60.9,0.243,25.5,0.14,9.39
COc1cc([C@@H]2c3cc4c(cc3C(O[C@@H]3O[C@@H]5CO[C@@H](c6cccs6)OC5[C@H](O)[C@H]3O)C3COC(=O)[C@@H]32)OCO4)cc(OC)c1O (some centres undefined),0.0856,1.09,0.118,0.796,0.0878,1.31,0.0256,1.37,0.0603,1.63,0.0104,0.0527,0.0336,0.216,0.0721,1.28,0.105,0.534,0.0268,0.199
NC(N)=NC(N)=Nc1cc2ccccc2c2ccccc12,5.15,20.6,12.3,27.2,10.5,22.8,4.83,18.1,6.5,21.4,10.5,26.3,7.23,22.5,5.33,18.3,10.6,24.1,10.6,23.5
Cc1c2c(nn1-c1ccc(S(=O)(=O)/N=C3\SCC(=O)N3C(=O)c3ccccc3)cc1)-c1ccccc1CC2,68.8,> 100,51.4,> 100,38.6,92.9,23.3,62.4,> 100,> 100,65.5,> 100,28.9,77.9,26.4,58.8,28.8,77.5,–,–
COc1ccc(-c2cc3c(nn2)-c2ccccc2C3=O)cc1,> 100,> 100,47.7,> 100,> 100,> 100,> 100,> 100,72.7,> 100,> 100,> 100,> 100,> 100,70.2,> 100,> 100,> 100,> 100,> 100
COc1cccc(N=Cc2c3ccccc3c(=O)n3c2oc2ccccc23)c1,7.82,39,3.78,42.8,21.9,> 100,7.67,> 100,38,> 100,–,–,14,> 100,5.62,> 100,–,20.9,16.3,95.3
COc1cc(Cn2c(-c3ccccc3)cc3c2-c2oncc2CC3)cc(OC)c1OC,5.38,> 100,0.585,22.8,–,–,0.947,35.4,0.42,> 100,0.32,1.36,1.52,39.8,0.464,91.7,1.36,50.5,0.735,10.3
NCCCCn1c2c(c3ccccc3c1=O)C(=O)c1ccccc1-2,0.0902,0.625,0.188,0.678,0.754,2.5,0.0485,0.824,< 0.0185,1.38,0.0382,0.0919,0.0639,0.573,0.092,1.76,0.644,–,0.102,0.462
C#CC[C@]12CC(=O)CC[C@H]1CC(=O)C2,–,> 100,–,> 100,–,–,–,> 100,–,> 100,–,> 100,–,> 100,–,> 100,–,> 100,–,> 100
COc1ccc(C2CC(=O)c3c(OC)cc(OC)cc3O2)cc1 (centres undefined),> 100,> 100,> 100,> 100,> 100,> 100,> 100,> 100,> 100,> 100,–,–,> 100,> 100,> 100,> 100,> 100,> 100,> 100,> 100

# — PubChem BioAssay (NCI)
